“Also recorded” adds a separate entry of the source.
Legend:
dog lung tissues = test: Protection of mucous membranes against noxious agents, microscopic examination of dog lung tissues; format: in vivo
serum uric acid [1] = test: Reduction in serum uric acid levels, rats; format: in vivo, albino male and female rats
Protocol: normal adult albino male and female rats were given repeated graded doses of AMR-69 and the effect upon serum uric acid levels was determined. There were 10 males and 10 females in each group. The control group received the placebo and the drug was administered orally by admixture to the food. The serum uric acid determination was one of a series performed utilizing the Autotechnicon technique (Lofland et al., 1965 Technicon Symposium) using the Standard SMA-12 procedure (based upon procedure of Bittner et al., AM. J. Clin. Path. 40:423, 1963).
The lowering in serum uric acid levels shown by AMR-69 in tests on rats and on dogs has been noted.

rabbit leg muscle = test: Local toxicity of intramuscular injection into rabbit leg muscle; format: in vivo, New Zealand white rabbits
Protocol: six healthy adult New Zealand white rabbits from a stock colony were injected into the large muscle mass of the leg with a 2.0 milliliter volume of 2.0% aqueous solution of AMR-69. The response was compared to the intramuscular injection of 2.0 ml. of an isotonic solution of sodium chloride. The animals were carefully observed for any evidence of discomfort for a period of three hours. […] Three hours after the injection, the animals were sacrificed and a careful dissection was made around the injection site of the: (1) skin, (2) subcutaneous fascia, and (3) muscle tissue for a gross examination under a low powder binocular mircroscope for any tissue reaction. […] Similarly, no tissue reaction was found following the intramuscular injection of the isotonic saline. One change noted in two rabbits reflected a hemorrhage from a vein which was cut as the hypodermic needle passed into the tissue. After the gross examination, the muscle masses were dissected out, removed and preserved in buffered formalin for histological examination.

[2] = system: experimentally-induced fever in albino rabbits; test: Anti-pyretic activity, experimentally-induced fever in rabbits; format: in vivo
Protocol: anti-pyretic activity testing is based upon the ability of the drug to suppress the experimentally-induced fever in albino rabbits (F. M. Berger, et al. J. Pharmacology and Experimental Therapeutics, Vol. 127, No. 1, 1959 based upon the original presentations of G. Brownlee Quart. J. Pharm; Vol. 10, Pg. 609, 1937 and Quart. J. Pharm., Vol. 12, Pg. 45, 1939). The drugs under test are administered intraperitoneally and the response is compared to that of saline controls. The average change in temperature over a period of three hours following the administration of aminopyrine (100 mg./kg. i.p.), AMR-69 (100 mg./kg. i.p.) and the saline (isotonic) controls were as follows:
The effective anti-pyretic activity of AMR-69 in rabbits has been noted previously.

[3] = system: rats with the hind limb inflammed; test: Analgesic activity, rats with inflamed hind limb (absence of squeal on flexion of inflamed ankle joint); format: in vivo, rat; conditions: oral
Protocol: the end-point for analgesic testing in rats with the hind limb inflammed is based on the absence of a squeal in response to flexion of the inflammed ankle joint (Method described by S. Margolin, Proceedings of an International Symposium on Non-Steroidal Anti-Inflammatory Drugs, Excerpta Medica International Congress, Series No. 82, 1964).
With AMR-93, the median effective dose was 325 ± 45 mg./kg.

[4] = Tolerability on administration over extended periods; format: in vivo
Source text: It may be administered orally, topically, parenterally, intradermally, by inhalation spray in formulations containing conventional non-toxic pharmaceutically acceptable carriers, adjuvants and vehicles. The term parenteral as used herein includes subcutaneous injections, intravenous, intromuscular, intracisternal or intrathecal injection or infusion techniques.

serum uric acid [5] = test: Reduction in serum uric acid levels, dogs; format: in vivo, Beagle type dogs
Protocol: adult male and female Beagle type dogs from a closed colony weighing approximately 10 to 15 kilograms were utilized in the study. There were seven to nine dogs per group. AMR-69 was given orally in capsules to two groups and the third group received placebo capsules. […] The method for determining serum uric acid was performed using the Autotechnicon and the SMR-12 series of analyses. The specific method was based upon the procedure of Lofland et al. The mean serum uric acid values obtained with repeated doses of AMR-69 were as follows: […]

skin conditions = test: Effect on skin conditions (dermatitis, itching, insect sting, poison ivy) in humans; format: in vivo, human
[6] = system: mucous membranes of the nasopharynx and lungs; test: Protection of mucous membranes of the nasopharynx and lungs, comparison with related pyridones; format: in vivo; conditions: comparison with related pyridones
[7] = Absorption into the blood stream; conditions: in vivo
blood = test: Blood studies after administration for efficacy, and acute and chronic toxicity; format: in vivo; conditions: therapeutic or sublethal amounts; rats, mice, rabbits and dogs
[8] = system: glucose level in the serum; test: Reduction in serum glucose levels, nine week diet test in rats; format: in vivo, weanling rats of the Carworth Farms CFE Strain
rat lung tissues = test: Protection of mucous membranes against noxious agents, gross examination of rat lung tissues; format: in vivo
Solubility = format: physicochemical
[9] = system: fasted albino mice (Flanders); test: Acute toxicity in mice; format: in vivo; conditions: oral and intraperitoneal
Protocol: (§1) in fasted albino mice (Flanders) the LD50 for AMR-69 and aminopyrine was determined by standard procedures with the following results: […]

Acute toxicity in mice = format: in vivo; conditions: mouse, in vivo, ip; fasted albino mice, intraperitoneal; read-out: Intraperitoneally LD50
Protocol: as §1

Question: For `Cc1ccc(=O)n(-c2ccccc2)c1` [AMR-69, 5-methyl-1-phenyl-2-(1H)-pyridone], which “protection against noxious focal respiratory tract pathology (petechiae, edema, hemorrhage, focal infection)” value (dog lung tissues) is on record?
Answer: Its value is “affording protection against noxious focal respiratory tract pathology”.

Question: And the “crystal deposition of uric acid or its salts (joints, liver, muscles, kidneys)” value (serum uric acid [1]; microscopic examination of focal tissues of sacrificed animals)?
Answer: The value was “no evidence of crystal deposition”.

Question: What about the “reduction in serum uric acid, significance” value (serum uric acid [1]; rats, 30 and 100 mg./kg.) of the same molecule?
Answer: Its value is “statistically significant”.

Question: And the “serum uric acid, 30 mg./kg.” value (serum uric acid [1]; rats, repeated oral 30 mg./kg. in food, placebo 1.53 ± 0.20 mg.%, T = 1.92 (P = 0.06))?
Answer: Its value is 1.05 ± 0.15 mg.%.

Question: And the “serum uric acid, 100 mg./kg.” value (serum uric acid [1]; rats, repeated oral 100 mg./kg. in food, placebo 1.53 ± 0.20 mg.%, T = 3.25 (P< 0.01))?
Answer: The value was “.78 ± 0.11 mg %”.

Question: What about the “microscopic examination of injection sites versus isotonic saline” value (rabbit leg muscle; 2.0 ml of 2.0% aqueous solution i.m.) of the same molecule?
Answer: Its value is “no difference between those of the isotonic saline and the parenteral AMR-69”.

Question: And the “histological examination of excised muscle” value (rabbit leg muscle; 2.0 ml of 2.0% aqueous solution i.m., stained tissue sections)?
Answer: Its value is “absence of any edema, erythema, chemosis, or necrosis”.

Question: And the “tissue reaction at injection site, gross examination (skin, subcutaneous fascia, muscle)” value (rabbit leg muscle; 2.0 ml of 2.0% aqueous solution i.m., three hours)?
Answer: Its value is “No evidence of tissue reaction was observed”.

Question: And the “discomfort after intramuscular injection” value (rabbit leg muscle; 2.0 ml of 2.0% aqueous solution, three hours)?
Answer: Its value is “No discomfort was evident”.

Question: What about the “average change in temperature over a period of three hours” value ([2]; 100 mg./kg. i.p., fevered albino rabbits, saline controls +0.9 ±0.17°C) of the same molecule?
Answer: The value was -0.4 ±0.12 °C.

Question: And the “reduction in fever as compared to the saline control” value ([2]; 100 mg./kg. i.p., aminopyrine t = 6.6, p < 0.01, AMR-69 t = 6.3, p < 0.01)?
Answer: The value was “highly significant”.

Question: What about the anti-pyretic activity ([2]; rabbits, induced fever) of the same molecule?
Answer: The anti-pyretic activity was “effective anti-pyretic agent”.

Question: What about the ED50 ([3]; Rattus norvegicus, read-out: oral ED50 (median analgesic dose)) of the same molecule?
Answer: The ED50 was 145 ± 26 mg/kg.

Question: And the “analgesic effectiveness by the oral route as compared to aminopyrine” value [3]?
Answer: The value was “as effective as aminopyrine”.

Question: And the “onset of analgesic effect as compared to aminopyrine” value [3]?
Answer: Its value is “more rapid onset of analgesic effect”.

Question: What about the “irritation of body tissues at effective dosage levels” value ([4]; effective dosage levels) of the same molecule?
Answer: The value was “relatively non-irritating to the various body tissues”.

Question: What about the “side reactions on administration over extended periods” value ([4]; extended periods) of the same molecule?
Answer: Its value is “no untoward side reactions”.

Question: What about the “reduction in serum uric acid values versus control” value (serum uric acid [5]; oral capsules (P 0.05)) of the same molecule?
Answer: Its value is “significantly different from the control”.

Question: What about the “mean serum uric acid, 25 mg/kg” value (serum uric acid [5]; repeated oral capsules 25 mg/kg, placebo 0.78 ± 0.046 mg.%, T = 2.84 (P<0.02)) of the same molecule?
Answer: Its value is 0.59 ± 0.051 mg.%.

Question: What about the “mean serum uric acid, 75 mg/kg” value (serum uric acid [5]; repeated oral capsules 75 mg/kg, placebo 0.78 ± 0.046 mg.%, T = 2.40 (P<0.05)) of the same molecule?
Answer: Its value is 0.60 ± 0.049 mg.%.

Question: What about the “relief from the symptom, skin conditions” value (skin conditions; oral capsule (procedure of preceding section)) of the same molecule?
Answer: Its value is “Relief from the symptom was rapid in each instance”.

Question: What about the “relief from itching, contact dermatitis (poison ivy)” value (skin conditions; powder applied directly to the affected skin areas) of the same molecule?
Answer: The value was “substantially immediate relief from the characteristic itching”.

Question: And the “time to cessation of weeping of the affected areas” value (skin conditions; powder applied topically, poison ivy)?
Answer: The value was “thirty”.

Question: And the “protection of mucous membranes of the nasopharynx and lungs” value [6]?
Answer: Its value is “effective”.

Question: And the “absorption in the blood stream” value [7]?
Answer: Its value is “very rapidly absorbed in the blood stream”.

Question: And the blood dyscrasias (blood)?
Answer: The blood dyscrasias was “no indication of blood dyscrasias”.

Question: What about the “mean glucose, female, 600 mg./kg./day” value ([8]; female rats, 600 mg./kg./day in diet, control 173.0 mg.%) of the same molecule?
Answer: Its value is 144.8 mg.%.

Question: What about the mean glucose, female, 900 mg./kg./day ([8]; female rats, 900 mg./kg./day in diet, control 173.0 mg.%) of the same molecule?
Answer: The mean glucose, female, 900 mg./kg./day was 136 mg/dL.

Question: And the “mean glucose in the serum, male, 600 mg./kg./day” value ([8]; male rats, 600 mg./kg./day in diet, nine weeks, control 155.8 mg.%)?
Answer: Its value is 131.8 mg.%.

Question: What about the “mean glucose in the serum, male, 900 mg./kg./day” value ([8]; male rats, 900 mg./kg./day in diet, nine weeks, control 155.8 mg.%) of the same molecule?
Answer: Its value is 132.6 mg.%.

Question: And the “protection against noxious focal respiratory tract pathology (petechiae, edema, hemorrhage, focal infection)” value (rat lung tissues)?
Answer: Its value is “affording protection against noxious focal respiratory tract pathology”.

Question: What about the “solubility compared with other analgesic uricosuric agents” value (Solubility) of the same molecule?
Answer: The value was “more readily soluble than other analgesic uricosuric agents”.

Question: What about the “lethal dosage level / toxicity as compared to aminopyrine” value [9] of the same molecule?
Answer: The value was “markedly lower toxicity; also recorded: significant higher lethal dosage level as compared to aminopyrine”.

Question: And the LD50 (Acute toxicity in mice)?
Answer: Its LD50 is 420 ± 9 mg/kg.

— patent publication US3974281A, “5-Methyl-1-phenyl-2-(1H)-pyridone compositions and methods of use” (priority 1974, dated 1976)
